# Like-named read-outs stand apart in the source and are kept apart here.
# Legend:
# [1] = biological target: full-length human HPK1 (MAP4K1) (Homo sapiens (Human), UniProt Q92918); assay: HPK1 Kinase Assay (Biochemical Assay), ADP-Glo; details: GST-HPK1 3.2 nM, 10 μM ATP, MBP substrate, read-out: HPK1 enzymatic IC50
# Method in brief: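 GST-tagged full-length human HPK1 was expressed in Sf21 cells and used at 3.2 nM in 50 mM HEPES pH 7.5, 10 mM MgCl2, 2 mM DTT, 12.5 mM O-glycerophosphate, 0.01% BSA and 0.02% Brij-35. It was preincubated 15 min with 10-point compound dilutions, and the reaction was started with a start mix of 10 μM ATP and 3.235 μM MBP. After 120 min, ADP was measured by ADP-Glo luminescence and IC50 derived.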
# [2] = biological target: HPK1 (SLP76 phosphorylation at Ser376 in Jurkat and EL-4 cells) (Homo sapiens, UniProt Q92918); type: cell-based
# Method in brief: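 Jurkat (human) and EL-4 (mouse) cells, endogenous HPK1/SLP76, preincubated 60 min with compounds (10-point dilution), then stimulated with αCD3/αCD28 beads at 37 °C: 15 min for Jurkat, 30 min for EL-4. Ser376 pSLP76 in lysates read by AlphaLISA (Jurkat) or HTRF (EL-4); % inhibition and IC50 fitted.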
# [3] = αCD3/αCD28 Dynabeads stimulated cells, pSLP76 (Ser376) detection; read-out: HPK1 pSLP76 IC50
# HPK1 (SLP76 phosphorylation at Ser376 in Jurkat and EL-4 cells), sequence (Q92918 whole entry, looked up): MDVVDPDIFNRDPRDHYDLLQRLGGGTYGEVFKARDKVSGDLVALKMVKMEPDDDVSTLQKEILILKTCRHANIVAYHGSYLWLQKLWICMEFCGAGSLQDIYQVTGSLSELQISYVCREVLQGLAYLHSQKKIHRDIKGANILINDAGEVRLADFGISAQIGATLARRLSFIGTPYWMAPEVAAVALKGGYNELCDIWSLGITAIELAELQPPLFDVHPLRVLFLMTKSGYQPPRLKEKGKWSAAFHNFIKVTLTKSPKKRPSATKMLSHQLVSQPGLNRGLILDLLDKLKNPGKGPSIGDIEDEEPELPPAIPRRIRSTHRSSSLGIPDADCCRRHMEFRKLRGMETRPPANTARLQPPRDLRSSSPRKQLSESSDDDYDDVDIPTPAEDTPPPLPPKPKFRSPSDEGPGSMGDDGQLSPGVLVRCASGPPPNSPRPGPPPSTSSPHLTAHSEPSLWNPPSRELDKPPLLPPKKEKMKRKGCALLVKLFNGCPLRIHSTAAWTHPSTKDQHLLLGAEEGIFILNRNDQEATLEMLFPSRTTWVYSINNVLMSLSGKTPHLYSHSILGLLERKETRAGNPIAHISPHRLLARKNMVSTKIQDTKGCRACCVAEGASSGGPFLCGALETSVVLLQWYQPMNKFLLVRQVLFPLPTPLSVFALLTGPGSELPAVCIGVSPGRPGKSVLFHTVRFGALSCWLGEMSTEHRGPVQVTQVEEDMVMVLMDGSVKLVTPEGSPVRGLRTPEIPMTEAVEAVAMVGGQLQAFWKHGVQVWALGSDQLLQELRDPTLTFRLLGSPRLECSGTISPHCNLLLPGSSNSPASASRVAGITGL
# full-length human HPK1 (MAP4K1), sequence (Q92918 whole entry): as the sequence (Q92918 whole entry, looked up) above
structure (smiles),measurement,setting,value
"Cc1c(N2CCc3cnc(Nc4ccc(CS(C)(=O)=O)cc4)nc3C2)cnc2nc[nH]c12 [Example 171, N-[4-(methanesulfonylmethyl)phenyl]-7-{7-methyl-1H-imidazo[4,5-b]pyridin-6-yl}-5H,6H,7H,8H-pyrido[3,4-d]pyrimidin-2-amine]",IC50,[1],< 100 nM
same,IC50,"[2]; read-out: HPK1 pSLP76 IC50; αCD3/αCD28 Dynabeads stimulated cells, pSLP76 (Ser376) detection",500 to 1000 nM
"Cc1c(N2CCc3cnc(Nc4ccc(CC(=O)N5CC(C)(O)C5)cc4)nc3C2)cnc2c1NCCO2 [Example 173, 1-(3-hydroxy-3-methylazetidin-1-yl)-2-{4-[(7-{8-methyl-1H,2H,3H-pyrido[2,3-b][1,4]oxazin-7-yl}-5H,6H,7H,8H-pyrido[3,4-d]pyrimidin-2-yl)amino]phenyl}ethan-1-one]",IC50,[1],< 100 nM
same,IC50,[2]; [3],< 500 nM
"Cc1c(N2CCc3cnc(Nc4ccc(CC(=O)N5CC(OC(C)C)C5)cc4)nc3C2)cnc2c1NCCO2 [Example 174, 2-{4-[(7-{8-methyl-1H,2H,3H-pyrido[2,3-b][1,4]oxazin-7-yl}-5H,6H,7H,8H-pyrido[3,4-d]pyrimidin-2-yl)amino]phenyl}-1-[3-(propan-2-yloxy)azetidin-1-yl]ethan-1-one]",IC50,[1],< 100 nM
same,IC50,[2]; [3],< 500 nM
"COCC1CN(C(=O)Cc2ccc(Nc3ncc4c(n3)CN(c3cnc5c(c3C)NCCO5)CC4)cc2)C1 [Example 175, 1-[3-(methoxymethyl)azetidin-1-yl]-2-{4-[(7-{8-methyl-1H,2H,3H-pyrido[2,3-b][1,4]oxazin-7-yl}-5H,6H,7H,8H-pyrido[3,4-d]pyrimidin-2-yl)amino]phenyl}ethan-1-one]",IC50,[1],< 100 nM
same,IC50,[2]; [3],< 500 nM
"Cc1c(N2CCc3cnc(Nc4ccc(CS(=O)(=O)C5CC5)cn4)cc3C2)cnc2c1NCCO2 [Example 176, N-{5-[(cyclopropanesulfonyl)methyl]pyridin-2-yl}-6-{8-methyl-1H,2H,3H-pyrido[2,3-b][1,4]oxazin-7-yl}-5,6,7,8-tetrahydro-2,6-naphthyridin-3-amine]",IC50,[1],< 100 nM
same,IC50,[2]; [3],< 500 nM
"Cc1cc(Nc2ncc3c(n2)CN(c2cnc4c(c2C)NCCO4)CC3)ccc1CS(C)(=O)=O [Example 178, N-[4-(methanesulfonylmethyl)-3-methylphenyl]-7-{8-methyl-1H,2H,3H-pyrido[2,3-b][1,4]oxazin-7-yl}-5H,6H,7H,8H-pyrido[3,4-d]pyrimidin-2-amine]",IC50,[1],< 100 nM
same,IC50,[2]; [3],< 500 nM
"Cc1cc(Nc2cc3c(cn2)CCN(c2cnc4c(c2C)NCCO4)C3)ccc1CS(C)(=O)=O [Example 179, N-[4-(methanesulfonylmethyl)-3-methylphenyl]-6-{8-methyl-1H,2H,3H-pyrido[2,3-b][1,4]oxazin-7-yl}-5,6,7,8-tetrahydro-2,6-naphthyridin-3-amine]",IC50,[1],< 100 nM
same,IC50,[2]; [3],< 500 nM
"Cc1c(N2CCc3cnc(Nc4ccc(CS(C)(=O)=O)cc4)nc3C2C)cnc2c1NCCO2 (centres unmarked) [Example 180, N-[4-(methanesulfonylmethyl)phenyl]-8-methyl-7-{8-methyl-1H,2H,3H-pyrido[2,3-b][1,4]oxazin-7-yl}-5H,6H,7H,8H-pyrido[3,4-d]pyrimidin-2-amine]",IC50,[1],< 100 nM
same,IC50,[2]; [3],< 500 nM
"COC1CN(C(=O)Cc2ccc(Nc3ncc4c(n3)CN(c3cnc5c(c3C)NCCO5)CC4)cc2)C1 [Example 181, 1-(3-methoxyazetidin-1-yl)-2-{4-[(7-{8-methyl-1H,2H,3H-pyrido[2,3-b][1,4]oxazin-7-yl}-5H,6H,7H,8H-pyrido[3,4-d]pyrimidin-2-yl)amino]phenyl}ethan-1-one]",IC50,[1],< 100 nM
same,IC50,[2]; [3],< 500 nM
"Cc1c(N2CCc3cnc(Nc4ccc(C(C)(C)C#N)cc4)nc3C2)cnc2c1NCCO2 [Example 182, 2-methyl-2-(4-((7-(8-methyl-2,3-dihydro-1H-pyrido[2,3-b][1,4]oxazin-7-yl)-5,6,7,8-tetrahydropyrido[3,4-d]pyrimidin-2-yl)amino)phenyl)propanenitrile]",IC50,[1],< 100 nM
same,IC50,[2]; [3],< 500 nM
